Measured values as given in PMC10290043, “Pharmacokinetics, safety, and antitumor activity of talazoparib monotherapy in Chinese patients with advanced solid tumors” (Investigational New Drugs, 2023).
“Also recorded” adds a separate entry of the source. Like-named read-outs stand apart in the source and are kept apart here.

Experiments:
solid tumors = system: solid tumors; design: method as in PMID 34160752; settings: molecularly unselected Japanese patients with solid tumors; cited from earlier work
[1] = design: method as in PMID 30110579; settings: EMBRACA, cited from earlier work
[2] = design: method as in PMID 31489639; settings: population PK model, 490 patients, cited from earlier work
[3] = Safety: treatment-emergent adverse events, NCT04635631; type: in vivo, human; settings: for Any AE: safety population N=15, 1 mg QD
Source text: AE reporting included data up to 28 days after last dose of study drug or to start of new anticancer drug therapy Day -1 (whichever came first). For AEs, Medical Dictionary for Regulatory Activities (MedDRA), version 24.0, coding was applied.
All patients who had received at least 1 dose of talazoparib were included in the safety and efficacy analysis sets. All treated patients with at least 1 PK concentration in the single-dose and/or multiple-dose PK part were included in the PK concentration analysis set, and all treated patients with at least 1 of the PK parameters of primary interest in the single-dose and/or multiple-dose PK part were included in the PK parameter analysis set. All patients in the PK parameter analysis set who completed both the single-dose PK and multiple-dose PK parts without major protocol deviations were included in the PK evaluable analysis set.

[4] = Japanese patients, cited from earlier work; for Cmax / Tmax: ref Naito et al 2021 [16]
[5] = Western and Japanese patients; cited from earlier work
[6] = cited from earlier work; for Tmax: median (range)
[7] = design: method as in PMID 35907135; settings: Japanese patients, cited from earlier work
[8] = multiple dosing 1 mg QD oral, ref de Bono et al 2017
[9] = single dosing 1 mg oral, ref de Bono et al 2017

## Cn1ncnc1[C@H]1c2n[nH]c(=O)c3cc(F)cc(c23)N[C@@H]1c1ccc(F)cc1 [talazoparib]
Solid tumors
  Overall disease control rate: 44.4%
[1]; 42/286
  Grade 3–4 TEAE: thrombocytopenia: 15%
[1]; 60/286
  Grade 3–4 TEAE: neutropenia: 21%
[1]; 112/286
  Grade 3–4 TEAE: anemia: 39%
[2]; 4.79% interpatient variability
  Apparent volume of distribution of the central compartment: 162 L
[2]; 27.0% interpatient variability
  Mean apparent oral clearance: 6.36 L/h
[3]; 3/15 patients
  Patients with 1 or more dose reduction due to treatment-related AEs: Twenty percent
[3]; N=15
  Any-grade treatment-related TEAE: anemia: 46.7%
  Any-grade treatment-related TEAE: decreased lymphocyte count: 33.3%
  Any-grade treatment-related TEAE: decreased neutrophil count: 46.7%
  Any-grade treatment-related TEAE: decreased platelet count: 33.3%
  Any-grade treatment-related TEAE: decreased white blood cell count: 46.7%
  Any-grade treatment-related TEAE: elevated alanine aminotransferase: 33.3%
  Any-grade treatment-related TEAE: elevated aspartate aminotransferase: 33.3%
  Patients permanently discontinued because of treatment-related decreased neutrophil count: 6.7%
  Patients with dose interruptions due to all-causality AEs: 20.0%
  Patients with dose interruptions due to treatment-related AEs: 13.3%
  Patients with grade 3 treatment-related TEAEs: 20%
  Patients with grade 4 treatment-related TEAEs: 13.3%
  Patients with serious all-causality TEAEs: 13.3%
  Patients with serious treatment-related TEAEs: 13.3%
  Treatment-related grade 3 or 4 TEAE: decreased neutrophil count: 20%
  Treatment-related grade 3 or 4 TEAE: decreased platelet count: 20%
[3]; N=15, in words
  Patients with grade 3–4 treatment-related AEs: One-third
[3]; N=15, no grade 4
  Treatment-related grade 3 or 4 TEAE: anemia: 20%
  Treatment-related grade 3 or 4 TEAE: hyponatremia: 6.7%
  Treatment-related grade 3 or 4 TEAE: neutropenia: 6.7%
[3]; all-causality or treatment-related, N=15
  Grade 5 TEAEs: No grade 5 all-causality or treatment-related TEAEs; also recorded: no grade 5 TEAEs
[3]; all-causality, N=15
  AEs leading to discontinuation: 1 (6.7) n (%)
  AEs leading to dose interruption: 3 (20.0) n (%)
  AEs leading to dose reduction: 3 (20.0) n (%)
  Grade 3 or 4 AE: 9 (60.0) n (%)
  Grade 3 or 4 AE: Anemia: 3 (20.0) n (%)
  Grade 3 or 4 AE: Gamma-glutamyltransferase increased: 4 (26.7%) n (%)
  Grade 3 or 4 AE: Neutrophil count decreased: 3 (20.0) n (%)
  Grade 3 or 4 AE: Platelet count decreased: 3 (20.0) n (%)
  Grade 5 AE (Death due to AE): 0 n (%)
  Patients with any SAE: 2 (13.3) n (%)
  SAE: Anemia: 1 (6.7) n (%)
  SAE: Hypernatremia: 1 (6.7) n (%)
  SAE: Hyponatremia: 1 (6.7) n (%)
  SAE: Neutrophil count decreased: 1 (6.7) n (%)
  SAE: Platelet count decreased: 1 (6.7) n (%)
[3]; all-causality
  Any AE: 14 (93.3) n (%)
[3]; safety population N=15
  Patients with all-causality TEAEs: 93.3%
  Patients with treatment-related TEAEs: 86.7%
[3]; treatment-related, N=15
  AEs leading to discontinuation: 1 (6.7) n (%)
  AEs leading to dose interruption: 2 (13.3) n (%)
  AEs leading to dose reduction: 3 (20.0) n (%)
  Grade 3 or 4 AE: 5 (33.3) n (%)
  Grade 3 or 4 AE: Anemia: 3 (20.0) n (%)
  Grade 3 or 4 AE: Gamma-glutamyltransferase increased: 0 n (%)
  Grade 3 or 4 AE: Neutrophil count decreased: 3 (20.0) n (%)
  Grade 3 or 4 AE: Platelet count decreased: 3 (20.0) n (%)
  Grade 5 AE (Death due to AE): 0 n (%)
  Patients with any SAE: 2 (13.3) n (%)
  SAE: Anemia: 1 (6.7) n (%)
  SAE: Hypernatremia: 0 n (%)
  SAE: Hyponatremia: 1 (6.7) n (%)
  SAE: Neutrophil count decreased: 1 (6.7) n (%)
  SAE: Platelet count decreased: 1 (6.7) n (%)
[3]; treatment-related
  Any AE: 13 (86.7) n (%)
[4]; multiple dose 1 mg QD oral, geometric mean (geometric %CV), ref Naito et al 2021
  AUCtau: 244.7 (21) ng.h/mL
[4]; multiple dose 1 mg QD oral, geometric mean (geometric %CV)
  Cmax: 32.84 ng/mL
[4]; multiple dose 1 mg QD oral, median (range)
  Tmax: 1.03 (0.7–1.9) h
[4]; multiple dose 1 mg QD, median (range), ref Naito et al 2021
  Rac: 2.32 (1.70–8.28)
[4]; single dose 1 mg oral, N=6, geometric mean (geometric %CV)
  Cmax: 13.78 ng/mL
[4]; single dose 1 mg oral, arithmetic mean ± standard deviation, ref Naito et al 2021
  t1/2: 50.73 ± 10.1 h
[4]; single dose 1 mg oral, geometric mean (geometric %CV), ref Naito et al 2021
  AUCinf: 199.7 (9) ng.h/mL
[4]; single dose 1 mg oral, median (range)
  Tmax: 0.97 (0.5–2.0) h
[5]
  Maximum tolerated dose of monotherapy: 1 mg QD
[6]; Western patients with advanced cancers
  Median time to Cmax: ≤ 2 h
[6]; Western patients
  Mean accumulation ratio at steady state: 2.4 fold
  t1/2 (plasma elimination, biphasic kinetics): approximately 2 days
[6]; multiple dosing 1 mg QD oral, N=6, ref de Bono et al 2017
  Cmax: 21.0 (7.99) ng/mL
[6]; [8]
  Tmax: 1.02 (0.75–2.00) h
  CL/F: 5.24 (1.39) L/h
[6]; single dosing 1 mg oral, N=5, US/UK sites, ref de Bono et al 2017
  Cmax: 10.6 (4.22) ng/mL
[6]; single dosing 1 mg oral, arithmetic mean ± standard deviation, ref de Bono et al 2017
  t1/2: 52.9 ± 13.4 h
[6]; single dosing 1 mg oral, column uncertain, ref de Bono et al 2017
  VZ/F: 415 (170) L
[6]; [9]
  Tmax: 1.03 (0.73–2.07) h
  CL/F: 5.39 (1.59) L/h
[7]; 10/19
  Patients with grade 3–4 treatment-related AEs: 52.6%
[7]; 13/19
  Treatment-related AE: anemia: 68.4%
[7]
  Grade 5 AEs: no grade 5 AEs
  Patients with treatment-related AEs: all patients experienced treatment-related AEs
